Experimental data taken from the supplement of paper PMC10307832.

Legend:
Experiment in all cases: relative viability (nuclei count vs DMSO), 5 days (fraction); higher = more cells survive
Veliparib + Dasatinib = compound: C[C@]1(c2nc3c(C(N)=O)cccc3[nH]2)CCCN1 [Veliparib] + Cc1nc(Nc2ncc(C(=O)Nc3c(C)cccc3Cl)s2)cc(N2CCN(CCO)CC2)n1 [Dasatinib] (partner 0.075 µM)
Outline: (§1)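 The day after seeding in 1536-well plates, lung cancer cell lines were treated by pin tool with a single drug, or with a fixed anchor-drug dose together with five library-drug doses (not always all listed) in √10 steps. After 5 days, a combined fix-and-stain solution (final 0.05% Triton X-100, 1% formaldehyde, 1 ug/ml Hoechst) was added. Nuclei counted on 4× images gave relative viability as treated counts over vehicle counts, reported as the median of duplicate plates.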

[1] = compound: COC1=CC=C(C=C1)CN2C=CC3=C2C=C(C=C3)C(=O)NO + Nc1ncn([C@H]2C[C@H](O)[C@@H](CO)O2)c(=O)n1 [Decitabine] (partner 2 µM)
Outline: as §1

Veliparib + Luminespib = compound: C[C@]1(c2nc3c(C(N)=O)cccc3[nH]2)CCCN1 [Veliparib] + CCNC(=O)c1noc(-c2cc(C(C)C)c(O)cc2O)c1-c1ccc(CN2CCOCC2)cc1 [Luminespib] (partner 0.01 µM)
Outline: as §1

[2] = compound: COC1=CC=C(C=C1)CN2C=CC3=C2C=C(C=C3)C(=O)NO + CC(C)C[C@H](NC(=O)[C@H](Cc1ccccc1)NC(=O)c1cnccn1)B(O)O [Bortezomib] (partner 0.002 µM)
Outline: as §1

| Cell Line | relative viability (Veliparib + Dasatinib; first compound 0.02 µM) | relative viability (Veliparib + Dasatinib; first compound 0.06325 µM) | relative viability (Veliparib + Dasatinib; first compound 0.2 µM) | relative viability (Veliparib + Dasatinib; first compound 0.6325 µM) | relative viability (Veliparib + Dasatinib; first compound 2 µM) | relative viability ([1]; first compound 0.08 µM) | relative viability ([1]; first compound 0.253 µM) | relative viability ([1]; first compound 0.8 µM) | relative viability ([1]; first compound 2.53 µM) | relative viability ([1]; first compound 8 µM) | relative viability (Veliparib + Luminespib; first compound 0.02 µM) | relative viability (Veliparib + Luminespib; first compound 0.06325 µM) | relative viability (Veliparib + Luminespib; first compound 0.2 µM) | relative viability (Veliparib + Luminespib; first compound 0.6325 µM) | relative viability (Veliparib + Luminespib; first compound 2 µM) | relative viability ([2]; first compound 0.253 µM) | relative viability ([2]; first compound 0.8 µM) | relative viability ([2]; first compound 2.53 µM) | relative viability ([2]; first compound 8 µM) | relative viability ([2]; first compound 0.08 µM) |
| --- | --- | --- | --- | --- | --- | --- | --- | --- | --- | --- | --- | --- | --- | --- | --- | --- | --- | --- | --- | --- |
| NCI-H838 | 0.269 | 0.287 | 0.256 | 0.246 | 0.326 | 0.441 | 0.455 | 0.476 | 0.456 | 0.505 | 0.287 | 0.32 | 0.302 | 0.295 | 0.25 | 0.99 | 0.899 | 0.885 | 0.719 | – |
| NCI-H1355 | – | 0.676 | 0.682 | 0.611 | 0.524 | 0.326 | 0.357 | 0.347 | 0.403 | 0.311 | – | 0.543 | 0.664 | 0.658 | 0.62 | 1.15 | 1.34 | 1.27 | 1.19 | 1.1 |
| NCI-H1437 | 0.212 | 0.36 | 0.424 | 0.421 | 0.249 | 0.558 | 0.608 | 0.547 | 0.576 | 0.606 | 0.978 | 1.1 | 1.07 | 1.1 | 1.09 | 0.483 | 0.527 | 0.581 | 0.393 | 0.38 |
| NCI-H1650 | – | 0.319 | 0.3 | 0.271 | 0.223 | 0.358 | 0.407 | 0.423 | 0.392 | 0.328 | – | 0.216 | 0.194 | 0.199 | 0.217 | 0.174 | 0.208 | 0.211 | 0.195 | 0.17 |
| NCI-H1651 | 0.296 | 0.403 | 0.383 | 0.4 | 0.348 | 0.584 | 0.52 | 0.616 | 0.566 | 0.579 | 0.724 | 0.806 | 0.88 | 0.486 | 0.651 | 0.887 | 0.923 | 0.888 | 0.857 | 0.923 |
| NCI-H1666 | 0.725 | 0.846 | 0.766 | 0.753 | 0.757 | 0.639 | 0.797 | 0.81 | 0.659 | 0.723 | 1.01 | 0.984 | 0.968 | 0.941 | 0.982 | 1.02 | 0.782 | 0.84 | 0.774 | 0.621 |
| NCI-H1734 | 0.523 | 0.473 | 0.569 | 0.443 | 0.505 | – | 0.507 | 0.527 | 0.534 | 0.48 | 0.197 | 0.209 | 0.211 | 0.232 | 0.233 | 1.03 | 0.91 | 0.898 | 0.725 | – |
| NCI-H1755 | 0.392 | 0.37 | 0.401 | 0.375 | 0.413 | 0.632 | 0.737 | 0.64 | 0.743 | 0.683 | 0.551 | 0.553 | 0.41 | 0.357 | 0.36 | 0.992 | 0.949 | 0.992 | 0.97 | 0.91 |
